B1: IFN-γ: interferon-gamma (PeproTech), precision autophagy modulator (protein, UniProt P01579 24-161, looked up)
Interferon gamma: QDPYVKEAENLKKYFNAGHSDVADNGTLFLGILKNWKEESDRKIMQSQIVSFYFKLFKNFKDDQSIQKSVETIKEDMNVKFFNSNKKKRDDFEKLTNYSVTDLNVQRKAIHELIQVMAELSPAAKTGKRKRSQMLFRG

The first assay relates to TRIM21. The experiment in a line: TRIM21 mRNA levels by quantitative RT-PCR in THP-1 cells. The assay is classed as cell-based, human. To be noted: 1,000 U/ml IFN-γ for indicated times. The procedure:
(A) THP-1 cells were treated with 1,000 U/ml of IFN-γ for indicated times, and TRIM21 mRNA levels were determined by quantitative RT-PCR. (B) Co-immunoprecipitation analysis of GFP-TRIM20 with Flag-TRIM21 in HEK293 cells extracts. (C) Knockdown efficacy of TRIM21 level was examined by immunoblotting. (D) Levels of dimerized IRF3 were assessed by native PAGE from THP-1 cells subjected to TRIM21 or control knockdown, untreated with IFN-γ, and transfected with herring testis DNA (HT-DNA). (E and F) THP-1 cells subjected to TRIM21 or control knockdown were infected with a single-round infection HIV1 virus in the presence of 200 U/mL IFN-γ for 20 h, and (E) the levels of dimerized IRF3 or (F) mRNA levels of IFN-β were determined. […]
(§1) Detection of IRF3 dimerization was performed by native polyacrylamide gel electrophoresis (PAGE) as previously described (Takahasi et al., 2003). Quantitative RT-PCR was performed as previously described (Kimura et al., 2013) using the following primer sets: ULK1, ([…], […]); BECN1, ([…], […]); ACTIN, ([…], […]); TRIM1, ([…], […]); TRIM5, ([…], […]); TRIM8, ([…], […]); TRIM16, ([…], […]); TRIM20, ([…], […]); TRIM21, ([…], […]); TRIM22, ([…], […]); TRIM28, ([…], […]); TRIM56, ([…], […]); and TRIM65, ([…], […]). […]
Regarding B1, the TRIM21 expression result is listed as “transiently induced”.

The subject of the next assay is primary human macrophages. The experiment in a line: High content analysis of LC3 puncta in primary human macrophages. To be noted: IFN-γ 4 h. It is filed as cell-based. On the procedure:
(§2) (A and B) High content image analysis of LC3 puncta in (A) THP-1 cells or (B) human MDM cells treated with IFN-γ for 4 h. HC and mask overlays are as in FIG. 1. (C) Screen data from FIG. 1B showing average±range. (D) Knockdown efficacy of TRIMs were determined by RT-PCR. (E and F) THP-1 cells were treated with (E) escalating doses of IFN-γ for 4 h or (F) 1,000 U/ml of IFN-γ for indicated times, and TRIM20 mRNA levels were determined by quantitative RT-PCR. Values are standardized to (E) no IFN-γ control or (F) 0 h time point. (G) THP-1 cells were subjected to TRIM20 or scrambled siRNA, treated with IFN-γ for 4 h, and HC analysis performed. (H) Knockdown of TRIM20 mRNA levels was examined by quantitative RT-PCR. Values are standardized to control (Scr, scrambled; no IFN-γ). (I) LC3-II conversion in HEK293 cells transfected with GFP-TRIM20 (T20) or GFP. Data, means±SE, n≥3 experiments, except panel (C). Scale bars, 5 μm. *P<0.05, ^†P≥0.05 (t test in (B) or ANOVA (other panels)).
High content imaging and analysis was performed using a Cellomics V^TI HCS scanner and iDEV software (ThermoScientific). […] Epifluorescnece images were machine analyzed using present scanning parameters and object mask definitions. Hoechst 33342 staining were used to automatically detect cellular outlines based on background staining of the cytoplasm, and the mean count of LC3 puncta per cell was determined.
In the case of B1, the “autophagy induction (LC3 puncta per cell)” value is recorded as “induced autophagy”.

In a further assay the test system is TRIM20. The experiment in a line: TRIM20 mRNA levels by quantitative RT-PCR in THP-1 cells. The assay is classed as cell-based, human. Particulars: escalating doses for 4 h or 1,000 U/ml for indicated times. The procedure:
as §2, with “Data, means±SE, n≥3 experiments, except panel (C). Scale bars, 5 μm. *P<0.05, ^†P≥0.05 (t test in (B) or ANOVA (other panels)).” left out
as §1
With B1, the TRIM20 expression result is “responsive”.

The next assay relates to THP-1 cells. The assay can be described thus: High content analysis of LC3 puncta in THP-1 cells (TRIM family screen conditions). The assay is classed as cell-based, human. To be noted: IFN-γ 4 h. On the procedure: (A) THP-1 cells were subjected to TRIM knockdown, treated with 1,000 U/mL IFN-γ for 4 h, and high content (HC) analysis was performed using a Cellomics HCS scanner (epifluorescence) and iDEV software. HC (magenta, endogenous LC3B immunofluorescence [IF]; blue, nuclei stained with Hoechst). Mask overlay, software-defined objects (primary objects, cell outlines; internal secondary objects, LC3 puncta). (B) Average count of LC3 puncta per cell from cells treated as in (A) (Data from two 96-well plates with identical siRNA arrangements; the corresponding data are shown in Supplementary FIG. 1C). Encircled are INF-γ-treated wells (right) and wells with vehicle controls (bottom left). TRIM knockdowns that reduced LC3 puncta readout in both two experiments by 3 SDs (horizontal dot lines) from the average of IFN-γ-treated controls (horizontal solid line) are indicated by corresponding TRIM numbers (open circle). TRIMs that were chosen in follow-up experiments in FIG. 1C are also indicated with number. (C) Similar to (B), except that THP-1 cells were subjected to specific TRIM or scrambled (Scr; control) knockdown, and were analyzed in more than quadruplicate manner. […] (E) THP-1 cells were treated with TRIM20 or Scr siRNAs, treated with or without IFN-γ for 4 h in the presence of bafilomycin A1, and LC3-II conversion was determined by immunoblots. […]
On to B1, for which the “autophagy induction (LC3 puncta per cell)” value is recorded as “induced autophagy”.

The subject of a further assay is autophagy. The assay can be described thus: Autophagy assays identifying autophagy modulators. The assay is classed as cell-based.
Settings: not given
On to `CC(C)COCC(CN(Cc1ccccc1)c1ccccc1)N1CCCC1` (stereo not shown) [bepridil], for which the “activity as autophagy modulator” value is “agonists or inducers of autophagy”.
Turning to `CN(Cc1cc(Br)cc(Br)c1N)C1CCCCC1` [bromhexine], the “activity as autophagy modulator” value is reported as “agonists or inducers of autophagy”.
As to `CCN(CC)CCOc1ccc(C(=C(Cl)c2ccccc2)c2ccccc2)cc1.O=C(O)CC(O)(CC(=O)O)C(=O)O` [clomiphene citrate (Z,E)], the “activity as autophagy modulator” value is “agonists or inducers of autophagy”.
For `CCCCc1cc2ccccc2c(OCCN(C)C)n1` [dimethisoquin], the “activity as autophagy modulator” value is “agonists or inducers of autophagy”.
Same read-out and setting: the result for `O=C(Nc1ccccc1)OCC(CN1CCCCC1)OC(=O)Nc1ccccc1` (stereo not shown) [diperodon] reads “agonists or inducers of autophagy”; that for `CNCC(O)c1ccc(OC(=O)C(C)(C)C)c(OC(=O)C(C)(C)C)c1` (stereo not shown) [dipivefrin], “agonists or inducers of autophagy”; that for `COC(=O)Nc1nc2cc(C(=O)c3ccc(F)cc3)ccc2[nH]1` [flubendazole], “agonists or inducers of autophagy”.
Still for that read-out and setting: the result for `COCCCC/C(=N\OCCN)c1ccc(C(F)(F)F)cc1` [fluvoxamine] reads “agonists or inducers of autophagy”; that for `CC12CC3CC(C)(C1)CC(N)(C3)C2` [memantine], “agonists or inducers of autophagy”.
The same measure, in the same setting: the result for `CN1CCCC(CC2c3ccccc3Sc3ccccc32)C1` (stereo not shown) [metixene] reads “agonists or inducers of autophagy”; that for `CNCCC=C1c2ccccc2C=Cc2ccccc21` [norcyclobenzaprine], “agonists or inducers of autophagy”; that for `CNCCC=C1c2ccccc2CCc2ccccc21` [nortriptyline], “agonists or inducers of autophagy”.
`CC(=O)[O-].[Hg+][c]1ccccc1` [phenylmercuric acetate]: the “activity as autophagy modulator” value is listed as “antagonists or inhibitors of autophagy”.
The same measure, in the same setting: the result for `CC[N+](C)(CC)CCC[n+]1c(-c2ccccc2)c2cc(N)ccc2c2ccc(N)cc21.[I-].[I-]` [propidium iodide] reads “agonists or inducers of autophagy”; that for `N#Cc1c(Cl)c(Cl)c(Cl)c(C#N)c1Cl` [tetrachlorisophthalonitrile], “antagonists or inhibitors of autophagy”.

Source of the values: patent US10610564B2, “IRGM and precision autophagy controls for antimicrobial and inflammatory disease states and methods of detection of autophagy” (STC.UNM, priority 2015, dated 2020).
